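Interpolation was linear, between the two tested concentrations surrounding the appropriate level; five concentrations were tested over 48 hours in 96-well plates. TGI: total growth inhibition.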
Assays:
Assay in all cases: growth of human tumour cells (NCI), 48 h
[1] = test system: UACC-62 melanoma
[2] = test system: U251 CNS
[3] = test system: K-562 leukemia
[4] = test system: IGROV1 ovarian
[5] = test system: SK-MEL-2 melanoma
[6] = test system: HCT-116 colon
[7] = test system: SN12C renal
[8] = test system: SNB-19 CNS
[9] = test system: MDA-N
[10] = test system: OVCAR-8 ovarian
[11] = test system: SK-OV-3 ovarian
[12] = test system: COLO 205 colon
[13] = test system: BT-549 breast
[14] = test system: UO-31 renal
[15] = test system: MDA-MB-231 breast
[16] = test system: OVCAR-5 ovarian
[17] = test system: M14 melanoma
[18] = test system: NCI/ADR-RES ovarian
[19] = test system: RXF 393 renal
[20] = test system: SF-539 CNS
[21] = test system: DU-145 prostate
[22] = test system: HCT-15 colon
[23] = test system: NCI-H460 lung
[24] = test system: SF-295 CNS
[25] = test system: SW-620 colon
[26] = test system: HOP-62 NSCLC
[27] = test system: HL-60(TB) leukemia
[28] = test system: ACHN renal
[29] = test system: MCF7 breast
[30] = test system: CCRF-CEM leukemia
[31] = test system: HCC-2998 colon
[32] = test system: SF-268 CNS
[33] = test system: HT29 colon
[34] = test system: NCI-H23 lung
[35] = test system: EKVX NSCLC
[36] = test system: NCI-H226 lung
[37] = test system: 786-0 renal
[38] = test system: MALME-3M melanoma
[39] = test system: MOLT-4 leukemia
[40] = test system: TK-10 renal
[41] = test system: KM12 colon
[42] = test system: SK-MEL-5 melanoma
[43] = test system: T-47D breast
[44] = test system: OVCAR-3 ovarian
[45] = test system: NCI-H522 lung
[46] = test system: HS 578T breast
[47] = test system: OVCAR-4 ovarian
[48] = test system: LOX IMVI melanoma
[49] = test system: SNB-75 CNS
[50] = test system: A549 NSCLC
[51] = test system: A498 renal
[52] = test system: MDA-MB-435
[53] = test system: RPMI-8226 leukemia
[54] = test system: SK-MEL-28 melanoma
[55] = test system: PC-3 prostate
[56] = test system: CAKI-1 renal
[57] = test system: HOP-92 NSCLC
[58] = test system: UACC-257 melanoma
[59] = test system: SR leukemia

## CCCCOC(=O)C(O)Cc1ccoc1 (stereo unspecified)
[1]
  TGI: > 100 µM
[2]
  TGI: > 100 µM
[3]
  TGI: > 100 µM
[4]
  TGI: > 100 µM
[5]
  TGI: > 100 µM
[6]
  TGI: > 100 µM
[7]
  TGI: > 100 µM
[8]
  TGI: > 100 µM
[9]
  TGI: > 100 µM
[10]
  TGI: > 100 µM
[11]
  TGI: > 100 µM
[12]
  TGI: > 100 µM
[13]
  TGI: > 100 µM
[14]
  TGI: > 100 µM
[15]
  TGI: > 100 µM
[16]
  TGI: > 100 µM
[17]
  TGI: > 100 µM
[18]
  TGI: > 100 µM
[19]
  TGI: > 100 µM
[20]
  TGI: > 100 µM
[21]
  TGI: > 100 µM
[22]
  TGI: > 100 µM
[23]
  TGI: > 100 µM
[24]
  TGI: > 100 µM
[25]
  TGI: > 100 µM
[26]
  TGI: > 100 µM
[27]
  TGI: > 100 µM
[28]
  TGI: > 100 µM
[29]
  TGI: > 100 µM
[30]
  TGI: > 100 µM
[31]
  TGI: > 100 µM
[32]
  TGI: > 100 µM
[33]
  TGI: > 100 µM
[34]
  TGI: > 100 µM
[35]
  TGI: > 100 µM
[36]
  TGI: > 100 µM
[37]
  TGI: > 100 µM
[38]
  TGI: > 100 µM
[39]
  TGI: > 100 µM
[40]
  TGI: > 100 µM
[41]
  TGI: > 100 µM
[42]
  TGI: > 100 µM
[43]
  TGI: > 100 µM
[44]
  TGI: > 100 µM
[45]
  TGI: > 100 µM
[46]
  TGI: > 100 µM
[47]
  TGI: > 100 µM
[48]
  TGI: > 100 µM
[49]
  TGI: > 100 µM
[50]
  TGI: > 100 µM
[51]
  TGI: > 100 µM
[52]
  TGI: > 100 µM
[53]
  TGI: > 100 µM
[54]
  TGI: > 100 µM
[55]
  TGI: > 100 µM

## CC(=O)Nc1ccc2[nH]c(-c3cccc(F)c3)cc(=O)c2c1
[1]
  TGI: > 31 µM
[2]
  TGI: 16.3 µM
[4]
  TGI: > 100 µM
[5]
  TGI: […]
[56]
  TGI: > 100 µM
[7]
  TGI: > 100 µM
[8]
  TGI: > 100 µM
[9]
  TGI: > 25.4 µM
[10]
  TGI: > 31.6 µM
[11]
  TGI: > 100 µM
[12]
  TGI: > 65.5 µM
[13]
  TGI: > 100 µM
[14]
  TGI: > 82.2 µM
[15]
  TGI: > 59.6 µM
[16]
  TGI: > 100 µM
[17]
  TGI: > 100 µM
[18]
  TGI: 21.2 µM
[20]
  TGI: 6.92 µM
[22]
  TGI: > 100 µM
[23]
  TGI: > 100 µM
[24]
  TGI: > 77.2 µM
[25]
  TGI: > 100 µM
[57]
  TGI: > 55.1 µM
[26]
  TGI: > 48.4 µM
[27]
  TGI: 80.7 µM
[58]
  TGI: > 100 µM
[28]
  TGI: > 100 µM
[29]
  TGI: > 100 µM
[30]
  TGI: > 100 µM
[31]
  TGI: 23 µM
[33]
  TGI: > 100 µM
[34]
  TGI: > 56.8 µM
[35]
  TGI: > 100 µM
[36]
  TGI: > 75.9 µM
[37]
  TGI: > 100 µM
[38]
  TGI: > 100 µM
[39]
  TGI: > 100 µM
[40]
  TGI: > 100 µM
[41]
  TGI: > 100 µM
[42]
  TGI: 27.8 µM
[43]
  TGI: > 100 µM
[45]
  TGI: 20.2 µM
[46]
  TGI: > 28.2 µM
[47]
  TGI: > 29.5 µM
[50]
  TGI: > 100 µM
[51]
  TGI: > 59.8 µM
[52]
  TGI: 3.85 µM
[53]
  TGI: > 59.8 µM
[54]
  TGI: > 100 µM
[55]
  TGI: > 100 µM
[59]
  TGI: > 100 µM

— PubChem BioAssay (NCI)
